US20040072744A1, “Synthetic peptide as treatment for down's syndrome and schizophrenia” (priority 2002, published 2004)
Entries after “also recorded” stand apart in the source; their conditions may differ.

B1: NGF (protein)
chain: EDHPVHNLGEHSVCDSVSAWVTKTTATDIKGNTVTVMENVNLDNKVYKEYFFETKCKNPNPEPSGCRGIDSSHWNSYCTETDTFIKALTMEGNQASWRFIRIDTACVCVITKKTGN

Legend:
Alzheimer's patients = conditions: oral administration, human clinical trials; cited from earlier work
Down syndrome children = test: Treatment of Down syndrome children; type: in vivo, human; conditions: 100 μg/day, orally under the tongue or sub cutaneous injection
Procedure: In Humans: Several Down syndrome children were treated with Adesh-10. Adesh-10 was administered in the amount of 100 μg/day, either orally under the tongue, or by sub cutaneous injection.

[1] = test system: influenza virus A/TAI strain; test: Kinetics of replication of influenza A/TAI virus in MDCK cells in serum free medium with supplement; type: cell-based; conditions: 1 μg/ml trypsin; for A/TA1 virus titer Day 2: 1 μg/ml NGF or 5 μg/ml Adesh-10, day 2; for A/TA1 virus titer Day 4: 1 μg/ml NGF or 5 μg/ml Adesh-10, day 4; for A/TA1 virus titer Day 6: 1 μg/ml NGF or 5 μg/ml Adesh-10, day 6
PC12 cells = test: Neurite production on PC12 cells; type: cell-based, rat
Procedure: (§1) Adesh-10 (SEQ. ID. NO.: 2) is considered exemplary of the Adesh family of peptides and has been studied and tested to illustrate the invention. Venom derived NGF produced neurites on PC12 cells at 5 ng/ml while the concentration of Adesh-10 required was 1 μg/ml. NGF is toxic to PC 12 cells at the concentration of 5 μg/ml, while Adesh-10 is not toxic up to 100 μg/ml.

NGF = NGF content in organ homogenates of orally treated mice by ELISA using anti-NGF; type: in vivo, Balb/c male mice; conditions: oral 100 μg/mouse for 7 days
Procedure: One year old Balb/c male mice (considered to be retired and non-productive) were given Adesh-10 orally for seven consecutive days, and the control set of mice received PBS. Two days after the completion of the treatment, the mice were sacrificed for organs. Organ homogenates were assayed for NGF content by simple enzyme-linked immunosorbent assay (ELISA), using anti-NGF.
Preparation of organ homogenates: Mice were used in compliance with U.S. Public Health Service policy on humane care and use of animals. One-year-old Balb/c male mice were divided into two groups each consisting of five. Mice in group I were given orally 100 μg/mouse in 50 μl volume of Adesh-10, the synthetic analog of NGF for seven consecutive days. The group II mice were given similar volume of PBS. Two days after the completion of the treatment with Adesh-10 or PBS the mice were sacrificed for organs. Organs from five of each group of mice were collected and one type of organ from five were pooled. The pool of the organs was homogenized in PBS by manual homogenizer. The homogenates were centrifuged and the supernatants for each pool organ were separated. Protein concentration for each supernatant was measured on spectrophotometer using a protein kit from Bio-Rad (USA catalogue 500-0006). The protein concentrations of the supernatants were adjusted to 100 μg/ml with PBS, as stocks for further testing.
Enzyme-linked immunosorbent assay (ELISA): ELISA tests were carried out in 96 well microtiter plates. The reagents for ELISA were purchased from Sigma-Aldrich Co. The stocks from mouse organs were diluted with carbonate-bicarbonate buffer of pH 9.4 to 10 μg/ml as coating antigen for ELISA. The wells of the plate were coated with antigen, 100 μl/well. The plate was left at room temperature (RT) overnight, after which it was emptied and washed three times (3×) with PBS. The wells were blocked with 250 μl/well of 3% fish skin gelatin. After 30 min. the plate was emptied and washed 3× with PBS. Anti-NGF made in rabbit was diluted from 1:300 in gelatin. Three wells received 100 μl of each dilution of anti-serum. Two-fold diluted anti-sera were used from 1:300 in triplicate. The antigen controls without antibody were incorporated. The plate was incubated at 37° C. in a humid incubator for 1 hr after which the plate was washed 3× with PBS. The horseradish peroxidase conjugated with rabbit IgG 100 μl/well were reacted, for 30 min. Finally, after washing, the wells of the plate were reacted with O-phenylenediamine-HCl (OPD) for color development. The plate was read after 30 min. and the OD was recorded at […]. The average of triplicate readings was expressed as ELISA titer/100 μl.
One year old Balb/c male mice were used for this research. Ten mice were used consisting of two groups five of each. Mice in group I were given orally 100 μg/mouse in 50 μl volume of Adesh-10, synthetic analog of NGF for seven consecutive days. The group II mice were given similar volume of PBS. Two days after the completion of the treatment the mice were sacrificed for organs. Organ homogenates were assayed for NGF by ELISA.

simian rotavirus (SA11) = test: Kinetics of replication of SA11 virus in MA104 cells in serum free medium with supplement; type: cell-based; conditions: 1 μg/ml trypsin; for SA11 virus titer Day 2: 1 μg/ml NGF or 5 μg/ml Adesh-10, day 2; for SA11 virus titer Day 4: 1 μg/ml NGF or 5 μg/ml Adesh-10, day 4; for SA11 virus titer Day 6: 1 μg/ml NGF or 5 μg/ml Adesh-10, day 6; for SA11 virus titer Day 8: 1 μg/ml NGF or 5 μg/ml Adesh-10, day 8
PC 12 cells = test: Toxicity to PC12 cells; type: cell-based, rat
Procedure: as §1

| Molecule | A/TA1 virus titer Day 2 [1] | A/TA1 virus titer Day 4 [1] | A/TA1 virus titer Day 6 [1] | SA11 virus titer Day 2 (simian rotavirus (SA11)) | SA11 virus titer Day 4 (simian rotavirus (SA11)) | SA11 virus titer Day 6 (simian rotavirus (SA11)) | SA11 virus titer Day 8 (simian rotavirus (SA11)) | concentration toxic to PC 12 cells (PC 12 cells) | also measured |
| --- | --- | --- | --- | --- | --- | --- | --- | --- | --- |
| O=C(CCn1cnc2c(=O)[nH]cnc21)Nc1ccc(C(=O)[O-])cc1.[K+] [AIT-082] |  |  |  |  |  |  |  |  | efficacy in Alzheimer's patients versus placebo (Alzheimer's patients): no difference between Alzheimer's patients treated with AIT-082 and placebo |
| N L G E H P V C D S (NLGEHPVCDS; CORRESPONDS TO POSITIONS 1-10 OF SEQ. ID. NO. 1) [Adesh-10] | 4 Log TCID5/ml | 5.1 Log TCID5/ml | 6.2 Log TCID5/ml | 3 Log TCID50/ml | 6 Log TCID50/ml | 6.5 Log TCID50/ml | 8 Log TCID50/ml | > 100 µg/mL | clinical effect in Down's syndrome children (Down syndrome children): good results; also recorded: improved physical, vocal, learning and memory abilities; concentration required to produce neurites on PC12 cells (PC12 cells): 1 µg/mL; NGF concentration in organ, Treated: Bone (NGF; Bone, one year old male mice, organs 2 days after treatment): 900 ELISA titer/100 μl; NGF concentration in organ, Treated: Brain (NGF; Brain, one year old male mice, organs 2 days after treatment): 2400 ELISA titer/100 μl; NGF concentration in organ, Treated: Heart (NGF; Heart, one year old male mice, organs 2 days after treatment): 2400 ELISA titer/100 μl; NGF concentration in organ, Treated: Kidney (NGF; Kidney, one year old male mice, organs 2 days after treatment): 1800 ELISA titer/100 μl; NGF concentration in organ, Treated: Liver (NGF; Liver, one year old male mice, organs 2 days after treatment): 2400 ELISA titer/100 μl; NGF concentration in organ, Treated: Lung (NGF; Lung, one year old male mice, organs 2 days after treatment): 1800 ELISA titer/100 μl; NGF concentration in organ, Treated: Muscle (NGF; Muscle, one year old male mice, organs 2 days after treatment): 2400 ELISA titer/100 μl; NGF concentration in organ, Treated: Pancreas (NGF; Pancreas, one year old male mice, organs 2 days after treatment): 1200 ELISA titer/100 μl; NGF concentration in organ, Treated: Salivary (NGF; Salivary, one year old male mice, organs 2 days after treatment): 1200 ELISA titer/100 μl; NGF concentration in organ, Treated: Skin (NGF; Skin, one year old male mice, organs 2 days after treatment): 1200 ELISA titer/100 μl; NGF concentration in organ, Treated: Spleen (NGF; Spleen, one year old male mice, organs 2 days after treatment): 1200 ELISA titer/100 μl; NGF concentration in organ, Treated: Testis (NGF; Testis, one year old male mice, organs 2 days after treatment): 1800 ELISA titer/100 μl; increase in NGF level versus control (NGF; brain, muscle and testis): twofold increase |
| Trypsin [reference compound] | 5.6 Log TCID5/ml | 6 Log TCID5/ml | 6.5 Log TCID5/ml | 6.5 Log TCID50/ml | 7.2 Log TCID50/ml | 8 Log TCID50/ml | 8.5 Log TCID50/ml |  |  |
| B1 | 5 Log TCID5/ml | 5.5 Log TCID5/ml | 6.1 Log TCID5/ml | 4 Log TCID50/ml | 7 Log TCID50/ml | 7.5 Log TCID50/ml | 8.2 Log TCID50/ml | 5 µg/mL | concentration producing neurites on PC12 cells (PC12 cells): 5 ng/mL |
